# Experimental data from US7588885B2, “Use of biocistronic DNA constructs for identifying compounds that inhibit IRES-dependent translation” (Chung Yuan Christian University, priority 2004, dated 2009).
# What was measured:
# IRES of EV71 = experiment: cells; type: cell-based; conditions: for selective inhibition on IRES-dependent translation without affecting CAP-dependent translation (screening, FIG. 2): Cos-1 cells transfected with EV-71 IRES construct, amantadine 0.1 mg/ml, IFN-α 10 units, stavudine 0.05 mg/ml, 12 hrs
# Description: (§1) Plasmid PGS-EMCV is constructed by inserting into the plasmid pTriEx-4 (obtained from Novagene) template sequences of two reporter genes (cistrons), i.e., β-galactosidase (β-gal), and secreted human placental alkaline phosphatase (SEAP), with a promoter upstream of the first cistron (i.e., β-gal) and an EMCV-IRES sequence downstream of it, between the first cistron and the second cistron (i.e., SEAP). Plasmid pGS-EV71 and pGS-HCV are prepared in similar manner except an EV71-IRES sequence or a HCV-IRES sequence was used to replace the EMCV-IRES sequence.
# (§2) The kidney cells from African green monkey, i.e., Cos-1 cells, were transfected with the bicistronic DNA constructs prepared according to Example 1. The method of transfection is well known in the art. Briefly, a transfecting stock solution was prepared as follows: 1) solution A: 1 μg of the bicistronic DNA constructs of Example 1 was dissolved in serum free culturing medium, with its final volume adjusted to be 50 μl; 2) solution B: 2 μl of lipofectAMINE 2000 (obtained from Invitrogen) was mixed with 50 μl of serum free culturing medium; 3) mixed solution A with solution B. Cos-1 cells (0.5−2×10^5/well, 24 wells) were first incubated with 500 μl of the serum free culturing medium for a period of 20 min, and then 102 μl of the transfecting stock solution prepared above was added. The transfected cells were then return to culture environment (37°C., 5% CO2). After 12 hrs, the culturing medium were replaced by a medium containing fetal bovine serum and antibiotics, the transfected cells were continued to culture for another 12 hrs before used in the following compound screening procedure.
# (§3) The candidate compounds prepared according to the methods described above were dissolved in PBS, with stock concentration to be 10 mg/ml. These stock solutions were then diluted to proper ranges according to various screening conditions required.
# (§4) Reporter proteins activities, i.e., secreted Human Alkaline Phosphatase (SEAP) and β-galactosidase (β-gal), were measured with BD Great EscApe SEAP Detection kit (Cat. No. K2041-1, available from Clontech) and Luminescent β-gal Detection kit (Cat. No. K2048-1, available from Clontech), respectively, according to the manufacturer's instruction.
# IRES of EMCV = experiment: Bicistronic pGS-EMCV reporter assay in Cos-1 cells, SEAP activity (IRES-dependent translation); type: cell-based
# Description: as §1, §2
# as §3, with “required. […] Then, the identified tested compound can be used in preparation of a medicament for treating EV or EMCV infection.” for “required.”
# as §4
# [1] = system: CAP-dependent translation; experiment: Bicistronic pGS-EV71 reporter assay in Cos-1 cells, β-gal activity (CAP-dependent translation); type: cell-based, African green monkey
# Description: as §1
# (§5) The kidney cells from African green monkey, i.e., Cos-1 cells, were transfected with the bicistronic DNA constructs prepared according to Example 1. The method of transfection is well known in the art. […]
# as §4
# [2] = system: CAP-dependent translation; experiment: Bicistronic pGS-EMCV reporter assay in Cos-1 cells, β-gal activity (CAP-dependent translation); type: cell-based, African green monkey
# Description: as §1, §5, §4
# EV-71 = EV-71 whole cell antiviral activity; type: cell-based; conditions: Enterovirus A, EV71
# IRES of HCV = experiment: Bicistronic pGS-HCV reporter assay (IRES of HCV); type: cell-based, HCV (hepatitis C virus); conditions: data not shown
# Description: as §1, §5, §4
SMILES,"selective inhibition on IRES-dependent translation without affecting CAP-dependent translation (screening, FIG. 2) (IRES of EV71)","IC50 (IRES of EV71; Enterovirus A, EV71, COS-1, read-out: calculated IC50 for inhibition of IRES-dependent translation of EV71) [µg/mL]","inhibition at 250 µg/mL (IRES of EV71; Enterovirus A, EV71, COS-1, read-out: inhibition of IRES-dependent translation activity) [%]",gene inhibition (EV71-IRES mediated gene expression) (IRES of EV71; dose of about 0.01 mg/ml (FIG. 5A)) [%],gene inhibition (EV71-IRES mediated gene expression) (IRES of EV71; dose of about 0.25 mg/ml (FIG. 5A)) [%],"effect on SEAP activities (IRES of EV71; pGS-EV71 transfected cells, 0.01 mg/ml to 0.25 mg/ml (FIG. 3B))","IC50 (IRES of EMCV; Cardiovirus A, COS-1, read-out: calculated IC50 for inhibition of IRES-dependent translation of EMCV) [µg/mL]","inhibition at 250 µg/mL (IRES of EMCV; Cardiovirus A, COS-1, read-out: inhibition of IRES-dependent translation activity) [%]",gene inhibition (EMCV-IRES mediated gene expression) (IRES of EMCV; dose of about 0.05 mg/ml (FIG. 5B)) [%],gene inhibition (EMCV-IRES mediated gene expression) (IRES of EMCV; dose of about 0.25 mg/ml (FIG. 5B)) [%],"effect on SEAP activities (IRES of EMCV; pGS-EMCV transfected cells, 0.01 mg/ml to 0.25 mg/ml (FIG. 4B))","effect on CAP-dependent translation activity ([1]; 0.25 mg/ml, pGS-EV71 cells (FIG. 3))","effect on β-gal activities ([1]; pGS-EV71 transfected cells, 0.01 mg/ml to 0.25 mg/ml (FIG. 3A))","effect on CAP-dependent translation activity ([2]; 0.25 mg/ml, pGS-EMCV cells (FIG. 4))","effect on β-gal activities ([2]; pGS-EMCV transfected cells, 0.01 mg/ml to 0.25 mg/ml (FIG. 4A))",IC50 (EV-71) [µg/mL],effects on IRES of HCV (IRES of HCV)
"NC12CC3CC(CC(C3)C1)C2 [amantadine, 1-Aminoadamantane]",selective inhibition on IRES-dependent translation without affecting CAP-dependent translation,~55,~80,20,80,inhibits SEAP activities,~45,~80,20,80,inhibits SEAP activities,relatively no effect,little or no effect,relatively no effect,little or no effect,~8820,no effects
Cc1cn([C@H]2C=C[C@@H](CO)O2)c(=O)[nH]c1=O [stavudine],only amantadine demonstrates selective inhibition,–,–,–,–,–,–,–,–,–,–,–,–,–,–,–,–
